Reference: patent US11497734B2, “Dual inhibitors of TIM-3 and PD-1 pathways” (Aurigene Discovery Technologies Limited, priority 2017, dated 2022)

Columns and labels:
[1] = tested on: recombinant human TIM-3; assay: Human PBMC IFN-γ release assay in the presence of recombinant TIM-3; assay type: cell-based; settings: 100 nM compound, plate-coated TIM-3 + anti-CD3, anti-CD28, 72 h
Protocol: Vehicle: Milli Q water; RPMI 1640 (GIBCO, Cat #11875); Fetal Bovine Serum [Hyclone, Cat #SH30071.03]; Penicillin (10000 unit/ml)-Streptomycin (10,000 μg/ml) liquid (GIBCO, Cat #15140-122); MEM Sodium Pyruvate solution 100 mM (100×). Liquid (GIBCO, Cat #11360); Nonessential amino acid (GIBCO, Cat #11140); L-Glutamine (GIBCO, Cat #25030); Recombinant human TIM-3 (rhGi24 TIM-3/B7-H5 Fc chimera (R&D systems, cat no: 7126-B7); Anti-h/m Gi24/TIM-3/B7-H5 purified mouse monoclonal IgG2B (R&D systems, cat no: MAB7126); Mouse IgG2B isotype control (R&D Systems cat no: MAB 004); Anti human-CD3 antibody (eBiosciences—16-0039); Anti human-CD28 antibody (eBiosciences—16-0289); Histopaque (density-1.077 gm/ml) (SIGMA 1077); Trypan Blue solution (SIGMA-T8154); Hemacytometer (Bright line-SIGMA Z359629); FACS Buffer containing Phosphate Buffered Saline (PBS) pH 7.2; (HiMedia TS1006) with 0.1% Bovine Serum Albumin (BSA) (SIGMA A7050) and sodium azide (SIGMA 08591); 96-well format ELISA plates (Corning 3599); 96-well format ELISA plates (Corning 3361); BD FACS caliber (E6016); Centrifuge (Eppendorf 5810 R); Human IFN-'γ Duo set ELISA kit (R&D Systems; cat no: DY-285).
Human PBMC IFN-γ Release Assay
96-well cell culture plates were pre-coated with recombinant human TIM-3 (2.5 μg/ml) and anti-human CD3 (2.5 μg/ml), and stored at 4° C. overnight. Anti-human TIM-3 and isotype control antibodies were either coated along with the TIM-3 or incubated for 30 min next day before addition of cells. On the next day, plates were washed with 1× PBS and then incubated with test compounds for 30 min. Isolated PBMC (0.1×10^6 cells/well) and anti-human CD28 antibodies (1 μg/ml) were added to the wells. The culture was further incubated for 72 h at 37° C. with 5% CO2. After 72 h of incubation the cell culture supernatants were collected after brief centrifugation at 200 g×5 min at 4° C. and processed for human IFN-γ measurement by ELISA following manufacturer's protocol (R&D Systems; DY-285).
In brief, 96-well ELISA plates were coated with 100 μl/well of capture antibody in coating buffer and incubated overnight at 4° C. Plates were washed five times with wash buffer and further blocked with 200 μl of 1× assay diluents for 1 hr at RT. Following wash step, 100 μl of cell culture supernatants were added to wells and further incubated for 2 hr at RT. Appropriate standards were also included. After wash step, plate was incubated for one hour with 100 μl/well of detection antibody. The wash step was repeated and the plate was incubated for 30 min with 100 μl/well of Avidin-HRP. The plate was washed four times with wash buffer and subsequently incubated for 15 min with 100 μl/well of substrate solution. 50 μl of stop solution was added to each well and the plate was read at 450 nm using Gen5 ver 2.05. Delta OD values were used for calculating the concentrations. The absorbance values were plotted against the standards and the concentration of IFN-γ was determined using GraphPad Prism software. Each experimental condition was carried out in triplicates.
The percent rescue of IFN-γ release of the selected compounds of present invention are set forth below wherein “A” refers to compounds having more than 70% rescue of IFN-γ release, “B” refers to compounds having rescue of IFN-γ release ranges from 50% to 69.9% and “C” refers to compounds having less than 50% rescue of IFN-γ release.

[2] = biological target: T1, PD-L1 (Mus musculus, UniProt Q9EP73); assay: Rescue of mouse splenocyte proliferation in the presence of recombinant PD-L1 (CFSE proliferation assay); assay type: cell-based; settings: 100 nM compound; anti-CD3/CD28 stimulated mouse splenocytes + PD-L1; 72 h; read-out: PDL1 (rescue of proliferation @ 100 nM)
T1 construct: Fc (Fc chimera); purchased R&D Systems 1019-B7-100
T1 sequence (Q9EP73 19-238 limits assumed): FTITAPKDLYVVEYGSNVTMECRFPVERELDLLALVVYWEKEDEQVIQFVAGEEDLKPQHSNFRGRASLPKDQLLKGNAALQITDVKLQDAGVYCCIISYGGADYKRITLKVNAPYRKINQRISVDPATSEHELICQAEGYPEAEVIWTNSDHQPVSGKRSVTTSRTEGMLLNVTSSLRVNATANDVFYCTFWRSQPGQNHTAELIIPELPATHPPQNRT
Protocol: Example 1: Rescue of Mouse Splenocyte Proliferation in the Presence of Recombinant PD-L1/PD-L2
Recombinant mouse PD-L1 (rm-PDL-1, cat no: 1019-B7-100; R&D Systems) were used as the source of PD-L1.
Mouse splenocytes harvested from 6-8 weeks old C57 BL6 mice; RPMI 1640 (GIBCO, Cat #11875); DMEM with high glucose (GIBCO, Cat #D6429); Fetal Bovine Serum [Hyclone, Cat #SH30071.03]; Penicillin (10000 unit/mL)-Streptomycin (10,000 μg/mL) Liquid (GIBCO, Cat #15140-122); MEM Sodium Pyruvate solution 100 mM (100×)), Liquid (GIBCO, Cat #11360); Nonessential amino acid (GIBCO, Cat #11140); L-Glutamine (GIBCO, Cat #25030); Anti-CD3 antibody (eBiosciences—16-0032); Anti-CD28 antibody (eBiosciences—16-0281); ACK lysis buffer (1 mL) (GIBCO, Cat #-A10492); Histopaque (density—1.083 gm/mL) (SIGMA 10831); Trypan blue solution (SIGMA-T8154); 2 mL Norm Ject Luer Lock syringe-(Sigma 2014-12); 40 μm nylon cell strainer (BD FALCON 35230); Hemacytometer (Bright line-SIGMA Z359629); FACS Buffer (PBS/0.1% BSA): Phosphate Buffered Saline (PBS) pH 7.2 (HiMedia TS1006) with 0.1% Bovine Serum Albumin (BSA) (SIGMA A7050) and sodium azide (SIGMA 08591); 5 mM stock solution of CFSE: CFSE stock solution was prepared by diluting lyophilized CFSE with 180 μL of Dimethyl sulfoxide (DMSO C2H6SO, SIGMA-D-5879) and aliquoted in to tubes for further use. Working concentrations were titrated from 10 μM to 1 μM. (eBioscience-650850-85); 0.05% Trypsin and 0.02% EDTA (SIGMA 59417C); 96-well format ELISA plates (Corning CLS3390); BD FACS caliber (E6016); Recombinant mouse B7-H1/PDL1 Fc Chimera, (rm-PD-L1 cat no: 1019-B7-100).
Splenocytes harvested in a 50 mL falcon tube by mashing mouse spleen in a 40 μm cell strainer were further treated with 1 mL ACK lysis buffer for 5 min at room temperature. After washing with 9 mL of RPMI complete media, cells were re-suspended in 3 mL of 1×PBS in a 15 mL tube. 3 mL of Histopaque was added carefully to the bottom of the tube without disturbing overlaying splenocyte suspension. After centrifuging at 800×g for 20 min at room temperature, the opaque layer of splenocytes was collected carefully without disturbing/mixing the layers. Splenocytes were washed twice with cold 1×PBS followed by total cell counting using Trypan Blue exclusion method and used further for cell based assays.
Splenocytes were cultured in RPMI complete media (RPMI+10% fetal bovine serum+1 mM sodium pyruvate+10,000 units/mL penicillin and 10,000 μg/mL streptomycin) and maintained in a CO2 incubator with 5% CO2 at 37° C.
CFSE Proliferation Assay: CFSE is a dye that passively diffuses into cells and hinds to intracellular proteins. 1×10^6 cells/mL of harvested splenocytes were treated with 5 μM of CFSE in pre-warmed 1×PBS/0.1% BSA solution for 10 min at 37° C. Excess CFSE was quenched using 5 volumes of ice-cold culture media to the cells and incubated on ice for 5 min. CFSE labeled splenocytes were further given three washes with ice cold complete RPMI media. CFSE labeled 1×10^5 splenocytes added to wells containing either MDA-MB231 cells (1×10^5 cells cultured in high glucose DMEM medium) or recombinant human PDL-1 (100 ng/mL) and test compounds. Splenocytes were stimulated with anti-mouse CD3 and anti-mouse CD28 antibody (1 μg/mL each), and the culture was further incubated for 72 h at 37° C. with 5% CO2. Cells were harvested and washed thrice with ice cold FACS buffer and % proliferation was analysed by flow cytometry with 488 nm excitation and 521 nm emission filters. Data Compilation, Processing and Inference: […]

CC(O)[C@H](NC(=O)N[C@@H](CC(N)=O)c1nc([C@@H](N)Cc2ccccc2)no1)C(=O)O (stereo partly drawn) [Compound 3]
TIM-3 (rescue of IFN γ release @ 100 nM) [1]: A (more than 70% rescue of IFN-γ release)
activity at 0.1 µM [2]: 62%

CC(O)[C@H](NC(=O)N[C@@H](CC(=O)O)c1nc([C@@H](N)CO)no1)C(=O)O (stereo partly drawn) [Compound 4]
TIM-3 (rescue of IFN γ release @ 100 nM) [1]: C (less than 50% rescue of IFN-γ release)
activity at 0.1 µM [2]: 52%

CCC(C)[C@H](NC(=O)N[C@H](C(=O)O)C(C)O)c1nc([C@@H](N)CO)no1 (stereo partly drawn) [Compound 15]
TIM-3 (rescue of IFN γ release @ 100 nM) [1]: C (less than 50% rescue of IFN-γ release)
activity at 0.1 µM [2]: 50%

CSCC[C@H](N)c1noc([C@H](CC(N)=O)NC(=O)N[C@@H](CC(=O)O)C(=O)O)n1 [Compound 10]
TIM-3 (rescue of IFN γ release @ 100 nM) [1]: C (less than 50% rescue of IFN-γ release)
activity at 0.1 µM [2]: 53%

N[C@@H](Cc1ccc(O)cc1)c1noc([C@@H]2CCCCN2C(=O)N[C@@H](Cc2ccc(O)cc2)C(=O)O)n1 [Compound 19]
TIM-3 (rescue of IFN γ release @ 100 nM) [1]: C (less than 50% rescue of IFN-γ release)
activity at 0.1 µM [2]: 54%

N=C(N)NCCC[C@H](N)c1noc([C@H](CC(N)=O)NC(=O)N[C@@H](CO)C(=O)O)n1 [Compound 25]
TIM-3 (rescue of IFN γ release @ 100 nM) [1]: A (more than 70% rescue of IFN-γ release)
activity at 0.1 µM [2]: 70%

CC(O)[C@H](NC(=O)N[C@@H](CCC(=O)O)c1nc([C@@H](N)CCCCN)no1)C(=O)O (stereo partly drawn) [Compound 6]
TIM-3 (rescue of IFN γ release @ 100 nM) [1]: A (more than 70% rescue of IFN-γ release)
activity at 0.1 µM [2]: 52%

CC(O)[C@H](NC(=O)N[C@@H](CCC(=O)O)c1nc(C2COCCN2)no1)C(=O)O (stereo partly drawn) [Compound 17]
TIM-3 (rescue of IFN γ release @ 100 nM) [1]: C (less than 50% rescue of IFN-γ release)
activity at 0.1 µM [2]: 57%

CC(O)[C@@H](NC(=O)N[C@@H](CC(N)=O)c1nc([C@@H](N)CO)no1)C(=O)O (stereo partly drawn) [Compound 22]
TIM-3 (rescue of IFN γ release @ 100 nM) [1]: C (less than 50% rescue of IFN-γ release)
activity at 0.1 µM [2]: 90%

CC(O)[C@H](NC(=O)N[C@@H](CC(N)=O)c1nc([C@@H](N)CCC(=O)O)no1)C(=O)O (stereo partly drawn) [Compound 1]
TIM-3 (rescue of IFN γ release @ 100 nM) [1]: B (rescue of IFN-γ release ranges from 50% to 69.9%)
activity at 0.1 µM [2]: 68%

CC(O)[C@H](NC(=O)N[C@H](CC(N)=O)c1nc([C@@H](N)CO)no1)C(=O)O (stereo partly drawn) [Compound 7]
TIM-3 (rescue of IFN γ release @ 100 nM) [1]: A (more than 70% rescue of IFN-γ release)
activity at 0.1 µM [2]: 74%

CC(C)[C@H](NC(=O)N[C@@H](CC(N)=O)c1nc([C@@H](N)CCCCN)no1)C(=O)O [Compound 9]
TIM-3 (rescue of IFN γ release @ 100 nM) [1]: C (less than 50% rescue of IFN-γ release)
activity at 0.1 µM [2]: 138%

NCCCC[C@H](N)c1noc([C@H](CC(N)=O)NC(=O)N[C@@H](CO)C(=O)O)n1 [Compound 12]
TIM-3 (rescue of IFN γ release @ 100 nM) [1]: A (more than 70% rescue of IFN-γ release)
activity at 0.1 µM [2]: 41%

NCCCC[C@H](N)c1noc([C@H](CCC(=O)O)NC(=O)N[C@@H](CO)C(=O)O)n1 [Compound 11]
TIM-3 (rescue of IFN γ release @ 100 nM) [1]: C (less than 50% rescue of IFN-γ release)
activity at 0.1 µM [2]: 60%

CC(O)[C@H](NC(=O)N[C@@H](CCCCN)c1nc([C@@H](N)CO)no1)C(=O)O (stereo partly drawn) [Compound 13]
TIM-3 (rescue of IFN γ release @ 100 nM) [1]: C (less than 50% rescue of IFN-γ release)
activity at 0.1 µM [2]: 66%

CN[C@@H](CO)c1noc([C@@H](N)CC(N)=O)n1 [Compound 26]
TIM-3 (rescue of IFN γ release @ 100 nM) [1]: B (rescue of IFN-γ release ranges from 50% to 69.9%)
activity at 0.1 µM [2]: 53%

N[C@@H](Cc1ccc(O)cc1)c1noc([C@@H]2CC(O)CN2C(=O)N[C@@H](Cc2ccc(O)cc2)C(=O)O)n1 (stereo partly drawn) [Compound 18]
TIM-3 (rescue of IFN γ release @ 100 nM) [1]: C (less than 50% rescue of IFN-γ release)
activity at 0.1 µM [2]: 57%

CC(=O)NCCCC[C@H](NC(=O)N[C@H](C(=O)O)C(C)O)c1nc([C@@H](N)CO)no1 (stereo partly drawn) [Compound 20]
TIM-3 (rescue of IFN γ release @ 100 nM) [1]: C (less than 50% rescue of IFN-γ release)
activity at 0.1 µM [2]: 37%

CC(O)[C@@H](N)c1noc([C@@H](CC(N)=O)NC(=O)N[C@H](CO)C(=O)O)n1 (stereo partly drawn) [Compound 8]
TIM-3 (rescue of IFN γ release @ 100 nM) [1]: B (rescue of IFN-γ release ranges from 50% to 69.9%)
activity at 0.1 µM [2]: 68%

CC(O)[C@H](NC(=O)N[C@@H](CC(N)=O)c1nc(C2(N)CCCC2)no1)C(=O)O (stereo partly drawn) [Compound 23]
TIM-3 (rescue of IFN γ release @ 100 nM) [1]: C (less than 50% rescue of IFN-γ release)
activity at 0.1 µM [2]: 47%

CC(O)[C@H](NC(=O)N[C@@H](CC(N)=O)c1nc([C@@H](N)Cc2ccc(O)cc2)no1)C(=O)O (stereo partly drawn) [Compound 21]
TIM-3 (rescue of IFN γ release @ 100 nM) [1]: C (less than 50% rescue of IFN-γ release)
activity at 0.1 µM [2]: 50%
